Measured values from patent US9605004B2, “Chemical compounds” (SYNGENTA LIMITED, priority 2013, dated 2017).

Key:
[1] = tested on: a variety of test species; assay: Post-emergence herbicidal activity (Example 8b, Table 3); type: in vivo; details: application post-emergence, rate 1000 g/ha, evaluated after 13 days, scale 0-5; for Herbicidal damage score, ABUTH: Abutilon theophrasti; for Herbicidal damage score, ALOMY: Alopecurus myosuroides; for Herbicidal damage score, AMARE: Amaranthus retroflexus; for Herbicidal damage score, ECHCG: Echinochloa crus-galli; for Herbicidal damage score, SETFA: Setaria faberi; for Herbicidal damage score, ZEAMX: Zea mays
Protocol: (§1) Seeds of a variety of test species were sown in standard soil in pots. After 8 days cultivation (post-emergence) under controlled conditions in a glasshouse (at 24/16° C., day/night; 14 hours light; 65% humidity), the plants were sprayed with an aqueous spray solution derived from the formulation of the technical active ingredient in acetone/water (50:50) solution containing 0.5% Tween 20 (polyoxyethelyene sorbitan monolaurate, CAS RN 9005-64-5). The test plants were then grown in a glasshouse under controlled conditions (at 24/16° C., day/night; 14 hours light; 65% humidity) and watered twice daily. After 13 days, the test was evaluated (5=total damage to plant; 0=no damage to plant).

[2] = tested on: a variety of test species; assay: Pre-emergence herbicidal activity (Example 8a, Table 2); type: in vivo; design: key: 0 = no damage to plant, 5 = total damage to plant; details: application pre-emergence, rate 1000 g/ha, evaluated after 13 days
Protocol: as §1, with “After” for “After 8 days”, “for one day (pre-emergence)” for “(post-emergence)”

| Compound | Herbicidal damage score, ABUTH [1] | Herbicidal damage score, ALOMY [1] | Herbicidal damage score, AMARE [1] | Herbicidal damage score, ECHCG [1] | Herbicidal damage score, SETFA [1] | Herbicidal damage score, ZEAMX [1] | Pre-emergence herbicidal activity, damage score ABUTH [2] | Pre-emergence herbicidal activity, damage score ALOMY [2] | Pre-emergence herbicidal activity, damage score AMARE [2] | Pre-emergence herbicidal activity, damage score ECHCG [2] | Pre-emergence herbicidal activity, damage score SETFA [2] | Pre-emergence herbicidal activity, damage score ZEAMX [2] |
| --- | --- | --- | --- | --- | --- | --- | --- | --- | --- | --- | --- | --- |
| CC1=C(Cl)C(=O)N(c2cc(C(C)C)[nH]n2)C1O (stereo not drawn) [Compound A3] | 5 | 5 | 5 | 5 | 5 | 5 | 5 | 3 | 5 | 5 | 5 | 1 |
| CC1=C(Cl)C(=O)N(c2cc(C3CC3)[nH]n2)C1O (stereo not drawn) [Compound A4] | 5 | 5 | 5 | 5 | 5 | 5 | 5 | 4 | 5 | 5 | 5 | 2 |
| CC1=C(Cl)C(=O)N(c2cc(C)[nH]n2)C1O (stereo not drawn) [Compound A5] | 5 | 4 | 3 | 5 | 5 | 3 | 5 | 3 | 5 | 5 | 4 | 2 |
| CC1=C(Cl)C(=O)N(c2cc(C(F)(F)C(F)(F)F)[nH]n2)C1O (stereo not drawn) [Compound A6] | 5 | 5 | 5 | 5 | 4 | 4 | 5 | 3 | 5 | 4 | 4 | 1 |
| CCC(C)(CC)c1cc(N2C(=O)C(Cl)=C(C)C2O)n[nH]1 (stereo not drawn) [Compound A7] | 5 | 5 | 5 | 5 | 5 | 5 | 5 | 3 | 5 | 5 | 5 | 3 |
| CC1=C(Cl)C(=O)N(c2cc(C)n(C)n2)C1O (stereo not drawn) [Compound B1] | 5 | 4 | 5 | 5 | 5 | 5 | 5 | 3 | 5 | 4 | 4 | 3 |
| CC1=C(Cl)C(=O)N(c2cc(C(C)(C)C)n(C)n2)C1O (stereo not drawn) [Compound B2] | 5 | 5 | 5 | 5 | 5 | 5 | 5 | 4 | 5 | 5 | 5 | 2 |
| CC1=C(Cl)C(=O)N(c2cc(C(F)(F)F)n(C)n2)C1O (stereo not drawn) [Compound B3] | 5 | 5 | 5 | 5 | 5 | 4 | 5 | 4 | 4 | 5 | 4 | 2 |
| CC1=C(Cl)C(=O)N(c2cc(C(F)(F)C(F)(F)F)n(C)n2)C1O (stereo not drawn) [Compound B4] | 5 | 5 | 5 | 5 | 5 | 3 | 5 | 4 | 5 | 5 | 5 | 2 |
| CC1=C(Cl)C(=O)N(c2cc(C(C)C)n(C)n2)C1O (stereo not drawn) [Compound B5] | 5 | 4 | 5 | 5 | 4 | 5 | 5 | 3 | 5 | 5 | 4 | 2 |
| C=CCC(C)(C)c1cc(N2C(=O)C(Cl)=C(C)C2O)nn1C (stereo not drawn) [Compound B6, 4-chloro-1-[5-(1,1-dimethylbut-3-enyl)-1-methyl-pyrazol-3-yl]-2-hydroxy-3-methyl-2H-pyrrol-5-one] | 5 | 5 | 5 | 5 | 5 | 4 | 5 | 4 | 5 | 4 | 5 | 4 |
| CC(C)=Cc1cc(N2C(=O)C(Cl)=C(C)C2O)nn1C (stereo not drawn) [Compound B7, 4-chloro-2-hydroxy-3-methyl-1-[1-methyl-5-(2-methylprop-1-enyl)pyrazol-3-yl]-2H-pyrrol-5-one] | 5 | 4 | 5 | 5 | 5 | 2 | 4 | 2 | 4 | 4 | 4 | 2 |
| CC1=C(Cl)C(=O)N(c2cc(I)n(C)n2)C1O (stereo not drawn) [Compound B8, 4-chloro-2-hydroxy-1-(5-iodo-1-methyl-pyrazol-3-yl)-3-methyl-2H-pyrrol-5-one] | 5 | 5 | 5 | 5 | 5 | 4 | 4 | 4 | 5 | 4 | 5 | 3 |
| CC1=C(Cl)C(=O)N(c2cc(Cl)n(C)n2)C1O (stereo not drawn) [Compound B9] | 5 | 5 | 5 | 5 | 5 | 5 | 4 | 3 | 5 | 4 | 5 | 2 |
